Laboratory results from patent US20180228799A1, “Treatment for Neurological and Mental Disorders” (PSYCHOGENICS, INC., priority 2008, published 2018).

How the values were obtained:
[1] = tested on: symptoms of ADHD in adults; test: Clinical Global Impressions-Improvement (CGI-I), same trial; type: in vivo, human; settings: 14 days; for CGI-I, percent of subjects showing improvement: b136 all subjects
Protocol: This double-blind, multiple-dose, placebo-controlled, crossover study was conducted to assess the effects of 14 days of oral eltoprazine treatment in 48 adults with ADHD. Subjects eligible for study enrollment were to have met Diagnostic and Statistical Manual of Mental Disorders, Fourth Edition, Text Revision (DSM-IV-TR) criteria for ADHD. Assessment was to be made by clinical history, a Structured Clinical Interview for DSM-IV Axis Disorders-Research Version (SCID-RV), and a Conners' Adult ADHD Diagnostic Interview for DSM IV (CAADID).
Oral doses of eltoprazine hydrochloride were 5 mg/day or 10 mg/day for 14 consecutive days (i.e., 2.5 or 5 mg twice daily (bid), respectively). Eltoprazine hydrochloride was administered in gelatin capsules with calcium hydrogen phosphate, 2H2O, maize starch NF, polyethylene glycol 6000 NF and magnesium stearate NF as excipients.
Secondary endpoints were evaluated with the Clinical Global Impressions-Improvement (CGI-I) and Continuous Performance Test. (CPT). The CGI-I test is used to determine the […] of improvement.

Male Wistar rats = test: Novel Object Recognition Test (NOR); type: in vivo; settings: 0.3, 1, 3, and 10 mg/kg, 1 h prior to training, 24 hours post training, FIG. 3
Description: In addition to working memory deficits, the initiative, “Measurement and Treatment Research to Improve Cognition in Schizophrenia” (MATRICS) has identified other domains of learning and memory in which schizophrenia patients show impaired visual learning and memory. There are several visual learning and memory tasks appropriate for study in rodents (Powell, S. B. and M. A. Geyer, Overview of animal models of schizophrenia. Curr Protoc Neurosci, 2007. Chapter 9: p. Unit 9 24). […]
Male Wistar rats were assessed for cognitive ability in a test apparatus comprising an open-field arena placed in a sound-attenuated room under dimmed lighting. […] All tests were video scored by an observer blind to treatment. […] Each rat was placed in the arena facing the same direction at the same position, and the time spent actively exploring the objects during a 10-minute test period was recorded. […] After 24 hours, each rat was placed again in the test arena for 10 minutes in the presence of one of the familiar objects and a novel object, and the time spent exploring both objects was recorded. […] The percent time spent exploring the novel object was recorded.

5-HT2C receptors = biological target: T1, 5-HT2C receptors (Homo sapiens, UniProt P28335); settings: relative to 5-HT1A, 5-HT1B; Schipper et al.; cited from earlier work
T1 sequence (P28335 33-458): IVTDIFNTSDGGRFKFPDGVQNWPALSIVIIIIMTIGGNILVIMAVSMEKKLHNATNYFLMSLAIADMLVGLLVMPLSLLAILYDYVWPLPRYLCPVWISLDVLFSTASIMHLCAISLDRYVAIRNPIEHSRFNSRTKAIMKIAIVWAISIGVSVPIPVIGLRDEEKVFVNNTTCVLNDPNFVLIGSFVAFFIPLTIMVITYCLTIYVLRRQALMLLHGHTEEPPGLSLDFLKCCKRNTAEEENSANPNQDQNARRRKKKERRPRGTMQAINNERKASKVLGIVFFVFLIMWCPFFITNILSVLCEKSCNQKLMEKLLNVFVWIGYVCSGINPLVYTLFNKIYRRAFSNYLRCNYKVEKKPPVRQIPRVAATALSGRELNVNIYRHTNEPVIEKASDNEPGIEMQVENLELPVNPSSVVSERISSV

5-HT1D receptor = settings: compared with serotonin; Schipper et al.; cited from earlier work

## c1cc2c(c(N3CCNCC3)c1)OCCO2 [Eltoprazine, 1-(2,3-dihydro-1,4-benzodioxanyl-5-yl) piperazine]
[1]; 5 mg/day, n = 38
  CGI-I Mean Improvement (S.D.): 2.6 (1.2)
  CGI-I, Number of Patients Improved: 26
  CGI-I, Number of Patients Not Improved: 12
[1]; 5 mg/day, b141/b146 subgroup with baseline score >40
  CGI-I, percent of subjects showing improvement: 62%
[1]; 10 mg/day, n = 37
  CGI-I Mean Improvement (S.D.): 2.7 (0.9)
  CGI-I, Number of Patients Improved: 30
  CGI-I, Number of Patients Not Improved: 7
[1]; 10 mg/day, b141 subgroup with baseline score >40
  CGI-I, percent of subjects showing improvement: 71%
[1]; more severely affected population (baseline score >40), 5 mg/day
  CGI reduction in severity score: 14%
Male Wistar rats
  Novel object recognition (NOR) memory vs. vehicle-treated controls: significantly improved
5-HT2C receptors
  Binding affinity for 5-HT2C receptors: somewhat lower affinity
5-HT1D receptor
  Binding affinity for the 5-HT1D receptor: relatively low affinity
